Patent publication US6924143B2, “Method for increasing the growth rate of cells in static liquid media” (priority 2001, dated 2005)

Test system: U. maydis wildtype strains
Experiment: Growth-assay of U. maydis strains in 384 well MTPs (FIG. 3A, absorbance at OD620)
Format: cell-based, Ustilago maydis
Settings: Hygromycin B 200 μg/ml, initial OD620 0,18, 1x minimal medium with 0,1% Kelzan, 30° C.
Method: FIG. 3 illustrates growth-assay of U. maydis strains in 384 well MTPs. • A: The kinetik of the absorbance at OD620 for U. maydis wildtype strains was determined in a 384 well MTP using a Tecan ultra reader (rombus). As control served a strain, to which Hygromycin B was added in a concentration of 200 μg/ml (crosses). The initial OD620 for both strains was 0,18. […] GFP fluorescence of a U. maydis strain, in which GFP expression is controlled by the strong constitutive OMA promoter (squares), was determined in a Tecan plus reader. The excitation wavelength was 485 nm, the emission wavelength was 535 nm. […] Compared to lower temperatures, the increase in OD620 and the increase in fluorescence was faster. Experimental procedures: U. maydis strains where treated as described before in the Examples. The solution contained 1×minimal medium, 0,1% Kelzan and the assay was performed at 30° C. All experiments where repeated in independent duplicates.

CN[C@H]1C[C@@H](N)[C@H](O)[C@@H](O[C@@H]2O[C@H](CO)[C@H](O)[C@@H]3OC4(O[C@H]23)O[C@H]([C@@H](N)CO)[C@H](O)[C@H](O)[C@H]4O)[C@@H]1O (stereo partly shown) [Hygromycin B]
course of optical density (OD620) over time: continuous decrease in optical density
